PubChem BioAssay AID652121 (NMMLSC, 2013)
Activity calls are given as the source filed them.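 The calls were made as follows: active = at least 15% of live cells showing both differentiation markers at top dose, and half-maximal dose below 10 µM; inactive = the rest.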

Assays:
[1] = GFP+/MAC1+ double-positive induction in arrested progenitors – HOXA9ER cells, flow cytometry, Powder Set01 subset01, dose response (AID 652121); conditions: ER-HoxA9 myeloid progenitors, GFP+/MAC1+ differentiation flow cytometry; at 10 µM (top of the series)
[2] = test system: ER-HoxA9 myeloid progenitors, GFP+/MAC1+ differentiation flow cytometry; assay: as above

| Structure (SMILES) | percent double positive differentiation [1] | EC50 [2] |
| --- | --- | --- |
| O=C(CCNC(=O)c1ccc(Cl)cc1)NC1CCCc2ccccc21 (stereo not drawn) | 44% (inactive) |  |
| O=C(O)c1cccnc1Nc1ccc(Cl)cc1 | 28.8% (inactive) |  |
| Cc1ccc(Nc2nc(=O)c3cccnc3s2)c(Br)c1 |  | 1830 nM |
